This passage reports TGI results from PubChem BioAssay (NCI).

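Exposure lasted 48 hours, with cells grown in 96-well plates and compounds tested at five concentrations. Definition used: TGI = concentration required for complete inhibition of growth.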

The first test relates to MOLT-4 leukemia. Nature of the test: NCI anticancer screen, dose series, 48 h.
Turning to `CC12CCC(CC1=O)C2(C)CCC(N)=O` (configuration not stated), the TGI is above 100 µM.

Turning to `CCNCCNc1c2ccccc2nc2ccccc12`, the TGI was above 100 µM.

`CCOP(=O)(OCC)C1CC(O)C(=O)N1` (configuration not stated): the TGI is above 100 µM.

`COC(=O)C(CC12CC3CC(CC(C3)C1)C2)NC(=O)C(N)CC(=O)O` (configuration not stated) showed a TGI above 100 µM.

As to `Cc1nc2cccc(F)c2c(=O)n1C1CCCCNC1=O` (configuration not stated), the TGI was above 10 µM.

For `N=c1oc2cc(O)ccc2cc1C(=O)NCc1ccccc1`, the TGI is 53.3 µM.

As for `C=CCOc1ccc(/C(N=Nc2ccc(Cl)cc2)=N/NC(=O)c2ccccc2)cc1OC`, the TGI was above 100 µM.

`COc1ccc(/C=C2\NC(=S)N(CN3CCCCC3)C2=O)cc1` displayed a TGI above 100 µM.

`Cc1ccc(C2=Nc3cccc4cccc(c34)N2)cc1` yielded a TGI above 100 µM.

Compound `COC(=O)c1ccccc1CC1Cc2ccc3c(c2C1=O)CCC3` (configuration not stated) gave a TGI above 100 µM.

As for `C[n+]1c2ccccc2c(C(=O)Nc2ccc(S(=O)(=O)Nc3ccnn3-c3ccccc3)cc2)c2ccccc21`, the TGI is above 100 µM.

Another test relates to NCI-H460 lung. Nature of the test: NCI anticancer screen, dose series, 48 h.
Turning to `O=C(/C=C/c1csc(-c2ccccc2)n1)NCc1ccc(C(=O)NCCc2ccccc2)cc1`, the TGI is above 100 µM.

Turning to `CC(=O)N1C(c2[nH]c3ccccc3c2-c2ccccc2)CCN1c1ccccc1` (configuration not stated), the TGI is above 10 µM.

Consider `COc1cccc(-c2c(C#N)c(N)nc3c2CCS(=O)(=O)c2ccc(C)cc2-3)c1`, for which the TGI is above 100 µM.

The compound `CC(=O)N1C(Nc2ccccn2)CCN1c1ccccc1` (configuration not stated) registered a TGI above 10 µM.

As for `CCNCCNc1c2ccccc2nc2ccccc12`, the TGI was determined as 1.54 µM.

Regarding `COC(=O)C(CC12CC3CC(CC(C3)C1)C2)NC(=O)C(N)CC(=O)O` (configuration not stated), the TGI was above 100 µM.

Regarding `Cc1nc2cccc(F)c2c(=O)n1C1CCCCNC1=O` (configuration not stated), the TGI is above 10 µM.

Compound `N=c1oc2cc(O)ccc2cc1C(=O)NCc1ccccc1` had a TGI above 100 µM.

`C=CCOc1ccc(/C(N=Nc2ccc(Cl)cc2)=N/NC(=O)c2ccccc2)cc1OC` yielded a TGI above 100 µM.

Regarding `Cc1ccc(C2=Nc3cccc4cccc(c34)N2)cc1`, the TGI is above 100 µM.

With `COC(=O)c1ccccc1CC1Cc2ccc3c(c2C1=O)CCC3` (configuration not stated), the TGI is above 100 µM.

`C[n+]1c2ccccc2c(C(=O)Nc2ccc(S(=O)(=O)Nc3ccnn3-c3ccccc3)cc2)c2ccccc21` came in with a TGI above 100 µM.

The subject of the next test is HCT-116 colon. The test is described as follows: NCI anticancer screen, dose series, 48 h.
`O=C(/C=C/c1csc(-c2ccccc2)n1)NCc1ccc(C(=O)NCCc2ccccc2)cc1` showed a TGI above 100 µM.

For `CC(=O)N1C(c2[nH]c3ccccc3c2-c2ccccc2)CCN1c1ccccc1` (configuration not stated), the TGI is above 10 µM.

With `COc1cccc(-c2c(C#N)c(N)nc3c2CCS(=O)(=O)c2ccc(C)cc2-3)c1`, the TGI is above 100 µM.

In turn, `CC(=O)N1C(Nc2ccccn2)CCN1c1ccccc1` (configuration not stated) showed a TGI above 10 µM.

Take `CC12CCC(CC1=O)C2(C)CCC(N)=O` (configuration not stated): the TGI was above 100 µM.

Consider `CCNCCNc1c2ccccc2nc2ccccc12`, for which the TGI is 7.99 µM.

For the compound `CCOP(=O)(OCC)C1CC(O)C(=O)N1` (configuration not stated), the TGI is above 100 µM.

In turn, `COC(=O)C(CC12CC3CC(CC(C3)C1)C2)NC(=O)C(N)CC(=O)O` (configuration not stated) gave a TGI above 100 µM.

`Cc1nc2cccc(F)c2c(=O)n1C1CCCCNC1=O` (configuration not stated): the TGI was above 10 µM.

The compound `N=c1oc2cc(O)ccc2cc1C(=O)NCc1ccccc1` displayed a TGI of 71.3 µM.

For `C=CCOc1ccc(/C(N=Nc2ccc(Cl)cc2)=N/NC(=O)c2ccccc2)cc1OC`, the TGI is above 100 µM.

Turning to `COc1ccc(/C=C2\NC(=S)N(CN3CCCCC3)C2=O)cc1`, the TGI was above 100 µM.

For `Cc1ccc(C2=Nc3cccc4cccc(c34)N2)cc1`, the TGI was above 100 µM.

As for `COC(=O)c1ccccc1CC1Cc2ccc3c(c2C1=O)CCC3` (configuration not stated), the TGI is above 100 µM.

The compound `C[n+]1c2ccccc2c(C(=O)Nc2ccc(S(=O)(=O)Nc3ccnn3-c3ccccc3)cc2)c2ccccc21` showed a TGI above 100 µM.

A further test concerns TK-10 renal. The test is described as follows: NCI anticancer screen, dose series, 48 h.
On to `O=C(/C=C/c1csc(-c2ccccc2)n1)NCc1ccc(C(=O)NCCc2ccccc2)cc1`, for which the TGI amounted to 38.2 µM.

`CC(=O)N1C(c2[nH]c3ccccc3c2-c2ccccc2)CCN1c1ccccc1` (configuration not stated) registered a TGI above 10 µM.

The compound `COc1cccc(-c2c(C#N)c(N)nc3c2CCS(=O)(=O)c2ccc(C)cc2-3)c1` gave a TGI above 100 µM.

`CC(=O)N1C(Nc2ccccn2)CCN1c1ccccc1` (configuration not stated) had a TGI above 10 µM.

For the compound `CC12CCC(CC1=O)C2(C)CCC(N)=O` (configuration not stated), the TGI is above 100 µM.

In turn, `CCNCCNc1c2ccccc2nc2ccccc12` had a TGI of 23.3 µM.

The compound `CCOP(=O)(OCC)C1CC(O)C(=O)N1` (configuration not stated) came in with a TGI above 100 µM.

The compound `COC(=O)C(CC12CC3CC(CC(C3)C1)C2)NC(=O)C(N)CC(=O)O` (configuration not stated) registered a TGI above 100 µM.

Turning to `Cc1nc2cccc(F)c2c(=O)n1C1CCCCNC1=O` (configuration not stated), the TGI is above 10 µM.

Compound `N=c1oc2cc(O)ccc2cc1C(=O)NCc1ccccc1` registered a TGI above 100 µM.

The compound `C=CCOc1ccc(/C(N=Nc2ccc(Cl)cc2)=N/NC(=O)c2ccccc2)cc1OC` registered a TGI above 100 µM.

In the case of `COc1ccc(/C=C2\NC(=S)N(CN3CCCCC3)C2=O)cc1`, the TGI is above 100 µM.

For `Cc1ccc(C2=Nc3cccc4cccc(c34)N2)cc1`, the TGI was above 100 µM.

Regarding `COC(=O)c1ccccc1CC1Cc2ccc3c(c2C1=O)CCC3` (configuration not stated), the TGI was above 100 µM.

The compound `C[n+]1c2ccccc2c(C(=O)Nc2ccc(S(=O)(=O)Nc3ccnn3-c3ccccc3)cc2)c2ccccc21` returned a TGI above 100 µM.

The test system of the next test is EKVX NSCLC. Nature of the test: NCI anticancer screen, dose series, 48 h.
Compound `O=C(/C=C/c1csc(-c2ccccc2)n1)NCc1ccc(C(=O)NCCc2ccccc2)cc1` gave a TGI above 100 µM.

Compound `CC(=O)N1C(c2[nH]c3ccccc3c2-c2ccccc2)CCN1c1ccccc1` (configuration not stated) gave a TGI above 10 µM.

On to `CC(=O)N1C(Nc2ccccn2)CCN1c1ccccc1` (configuration not stated), for which the TGI was above 10 µM.

`CC12CCC(CC1=O)C2(C)CCC(N)=O` (configuration not stated) registered a TGI above 100 µM.

In the case of `CCNCCNc1c2ccccc2nc2ccccc12`, the TGI came out at 21.9 µM.

For the compound `CCOP(=O)(OCC)C1CC(O)C(=O)N1` (configuration not stated), the TGI is above 100 µM.

In turn, `COC(=O)C(CC12CC3CC(CC(C3)C1)C2)NC(=O)C(N)CC(=O)O` (configuration not stated) had a TGI above 100 µM.

`Cc1nc2cccc(F)c2c(=O)n1C1CCCCNC1=O` (configuration not stated) gave a TGI above 10 µM.

In turn, `N=c1oc2cc(O)ccc2cc1C(=O)NCc1ccccc1` gave a TGI above 100 µM.

Compound `C=CCOc1ccc(/C(N=Nc2ccc(Cl)cc2)=N/NC(=O)c2ccccc2)cc1OC` showed a TGI above 100 µM.

The compound `COc1ccc(/C=C2\NC(=S)N(CN3CCCCC3)C2=O)cc1` showed a TGI above 100 µM.

Consider `Cc1ccc(C2=Nc3cccc4cccc(c34)N2)cc1`, for which the TGI is above 100 µM.

`COC(=O)c1ccccc1CC1Cc2ccc3c(c2C1=O)CCC3` (configuration not stated) registered a TGI above 100 µM.

The compound `C[n+]1c2ccccc2c(C(=O)Nc2ccc(S(=O)(=O)Nc3ccnn3-c3ccccc3)cc2)c2ccccc21` came in with a TGI above 100 µM.
